Measured values taken from PubChem BioAssay AID2060498 (Molecular Pharmacology Branch, DTP, NCI, 2025).

System: 171881-019-R-J1-PDC tumor spheroids, viability
Experiment: Anticancer human tumor 171881-019-R-J1-PDC patient-derived invasive breast carcinoma cell line growth inhibition [GQUAD]
Details: spheroids with HUVEC and MSC; for IC50: curve of first compound; for viability, T/C: stronger effect = lower value
Source text: DNA G-quadruplex Stabilizer Agents in Combinations in Complex Spheroids
A high-throughput screen of multi-cell type tumor spheroids was designed to identify active combinations of DNA G-quadruplex stabilizer agents and targeted small molecules. Complex spheroids include a stromal component modeled by human endothelial cells (HUVEC) and fibroblasts modeled by human mesenchymal stem cells (MSCs). The concentration ranges selected for each drug and investigational agent were based upon clinically achievable concentrations if the clinical Cmax of the agent was known.
Compounds. The drugs and investigational agents: pidnarulex (CX-5461; NSC782164), APTO-253 (NSC789042), BRACO-19 (NSC847499), peposertib (NSC802822), ceralasertib (NSC780249), elimusertib (NSC800525), camonsertib (NSC841442), AZD-1390 (NSC803789), olaparib (NSC753686), talazoparib (NSC767125), ART-558 (NSC835418), sotorasib (NSC818433), MRTX-1133 (NSC836407), SN-38 (NSC673596), topotecan (NSC609699), etoposide (NSC141540), doxorubicin (NSC123127), gemcitabine (NSC613327), 5-fluorouracil (NSC19893), paclitaxel (NSC125973), vemurafenib (NSC761431), panobinostat (NSC761190), R-306465 (JNJ-16241199; NSC773264), adavosertib (NSC754352), TP-3654 (NSC805149), carboplatin (NSC241240), KSQ-4279 (NSC840948), and staurosporine (NSC755774) were obtained from the National Cancer Institute (NCI) Developmental Therapeutics Program Chemical Repository (34). The FDA-approved anticancer drug set is available from the NCI Developmental Therapeutics Program. […] The stock solutions were prepared in dimethyl sulfoxide (DMSO, Sigma-Aldrich, St. Louis, MO, cat. D2650) at 800-fold the tested concentration and stored at -70 degrees C prior to their use. All drugs and investigational agents were tested over a range starting from a high concentration at or near the clinical Cmax and decreasing in half-log increments. If the clinical Cmax for an agent had not been determined, the highest concentration tested was 10 microM.
2.3 Cell Culture. All cells were maintained in an incubator at 37 degrees C and 5% CO2 with 95% humidity. The PDC lines were cultured according to standard operating procedures established by the NCI PDMR. All PDCs were thawed and cultured in Matrigel-coated flasks prepared with a working solution of 1X Ham's F-12 nutrient mix, without supplementation (Invitrogen, cat. 11765054), 100 U/mL penicillin-streptomycin (Invitrogen, cat. 15140122), and 2.5% Matrigel (Corning Inc., cat. 354248) for the first three passages. The 857933-349-R-J2-PDC line was cultured in 6C/Colon 1B media, which includes advanced DMEM/F-12 (Thermo Fisher Scientific, cat. 12634028), 10 mM HEPES (Thermo Fisher Scientific, cat. 15630080), 1X GlutaMAX supplement (Thermo Fisher Scientific, cat. 35050061), 0.1 mg/mL primocin (InvivoGen, cat. ant-pm-2), 10% defined fetal bovine serum, heat inactivated (HyClone Laboratories Inc., cat. SH30070.03HI), 50% L-WRN conditioned media (ATCC, cat. CRL-3276), 1.25 mM N-Acetyl-L-cysteine (Sigma-Aldrich, cat. A9165), 10 mM nicotinamide (Sigma-Aldrich, cat. N0636), 1X B-27 supplement (Thermo Fisher Scientific, cat. 17504044), 1X N-2 supplement (Thermo Fisher Scientific, cat. 17502048), 10 microM Y-27632 dihydrochloride (Tocris Bioscience, cat. 1254), and 50 ng/mL human EGF recombinant protein (Thermo Fisher Scientific, cat. PHG0311). The 485176-168-R4-J1-PDC line was cultured in Panc media, which includes all 6C/Colon 1B media components plus 100 ng/mL human FGF-10 (Thermo Fisher Scientific, cat. 100-26), 500 nM SB-431542 (Selleckchem, cat. S1067), and gastrin (Tocris, cat. 3006).
[…]

[1] = second compound 0.0316 µM, first compound 0.0316 µM
[2] = second compound 0.0316 µM, first compound 0.1 µM
[3] = second compound 0.0316 µM, first compound 0.316 µM
[4] = second compound 0.0316 µM, first compound 1 µM
[5] = second compound 0.0316 µM, first compound 3.16 µM
[6] = second compound 0.0316 µM, first compound 10 µM
[7] = second compound 0.1 µM, first compound 0.0316 µM
[8] = second compound 0.1 µM, first compound 0.1 µM
[9] = second compound 0.1 µM, first compound 0.316 µM
[10] = second compound 0.1 µM, first compound 1 µM
[11] = second compound 0.1 µM, first compound 3.16 µM
[12] = second compound 0.1 µM, first compound 10 µM
[13] = second compound 0.316 µM, first compound 0.0316 µM
[14] = second compound 0.316 µM, first compound 0.1 µM
[15] = second compound 0.316 µM, first compound 0.316 µM
[16] = second compound 0.316 µM, first compound 1 µM
[17] = second compound 0.316 µM, first compound 3.16 µM
[18] = second compound 0.316 µM, first compound 10 µM
[19] = second compound 1 µM, first compound 0.0316 µM
[20] = second compound 1 µM, first compound 0.1 µM
[21] = second compound 1 µM, first compound 0.316 µM
[22] = second compound 1 µM, first compound 1 µM
[23] = second compound 1 µM, first compound 3.16 µM
[24] = second compound 1 µM, first compound 10 µM
[25] = second compound 3.16 µM, first compound 0.0316 µM
[26] = second compound 3.16 µM, first compound 0.1 µM
[27] = second compound 3.16 µM, first compound 0.316 µM
[28] = second compound 3.16 µM, first compound 1 µM
[29] = second compound 3.16 µM, first compound 3.16 µM
[30] = second compound 3.16 µM, first compound 10 µM
[31] = second compound 10 µM, first compound 0.0316 µM
[32] = second compound 10 µM, first compound 0.1 µM
[33] = second compound 10 µM, first compound 0.316 µM
[34] = second compound 10 µM, first compound 1 µM
[35] = second compound 10 µM, first compound 3.16 µM
[36] = second compound 10 µM, first compound 10 µM
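Note: spheroids exposed to compounds for 7 days.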
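Throughout, for viability, T/C: 100% = DMSO vehicle control viability.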

C=CC(=O)N1CCN(c2nc(=O)n(-c3c(C)ccnc3C(C)C)c3nc(-c4c(O)cccc4F)c(F)cc23)C(C)C1 (stereo unspecified) + Cc1cnc(CNC(=O)c2c(=O)c3ccc(N4CCCN(C)CC4)nc3n3c2sc2ccccc23)cn1
IC50 (second compound 0.0316 µM): > 10000 nM | IC50 (second compound 0.1 µM): > 10000 nM | IC50 (second compound 0.316 µM): > 10000 nM | IC50 (second compound 1 µM): > 10000 nM | IC50 (second compound 3.16 µM): > 10000 nM | IC50 (second compound 10 µM): > 10000 nM | viability, T/C [1]: 113% | viability, T/C [2]: 92.9% | viability, T/C [3]: 100% | viability, T/C [4]: 103% | viability, T/C [5]: 87.2% | viability, T/C [6]: 50.9% | viability, T/C [7]: 88.3% | viability, T/C [8]: 90.8% | viability, T/C [9]: 78.4% | viability, T/C [10]: 93.2% | viability, T/C [11]: 81.6% | viability, T/C [12]: 55.8% | viability, T/C [13]: 79.2% | viability, T/C [14]: 80.4% | viability, T/C [15]: 80.9% | viability, T/C [16]: 82.2% | viability, T/C [17]: 82.6% | viability, T/C [18]: 63.4% | viability, T/C [19]: 73.4% | viability, T/C [20]: 63.2% | viability, T/C [21]: 77.7% | viability, T/C [22]: 78.1% | viability, T/C [23]: 81.8% | viability, T/C [24]: 66.5% | viability, T/C [25]: 70.6% | viability, T/C [26]: 67.5% | viability, T/C [27]: 73.2% | viability, T/C [28]: 66.3% | viability, T/C [29]: 83.3% | viability, T/C [30]: 68.9% | viability, T/C [31]: 61.2% | viability, T/C [32]: 65.1% | viability, T/C [33]: 65.7% | viability, T/C [34]: 74.5% | viability, T/C [35]: 81.7% | viability, T/C [36]: 68%

CC(C)n1c(=O)n(C)c2cnc3cc(F)c(-c4ccc(OCCCN5CCCCC5)nc4)cc3c21 + Cc1cnc(CNC(=O)c2c(=O)c3ccc(N4CCCN(C)CC4)nc3n3c2sc2ccccc23)cn1
IC50 (second compound 0.0316 µM): 1020 nM | IC50 (second compound 0.1 µM): 1720 nM | IC50 (second compound 0.316 µM): 1860 nM | IC50 (second compound 1 µM): 3420 nM | IC50 (second compound 3.16 µM): 3710 nM | IC50 (second compound 10 µM): 3200 nM | viability, T/C [1]: 63.7% | viability, T/C [2]: 56.6% | viability, T/C [3]: 59.6% | viability, T/C [4]: 48.2% | viability, T/C [5]: 39.1% | viability, T/C [6]: 16.1% | viability, T/C [7]: 62.4% | viability, T/C [8]: 62.2% | viability, T/C [9]: 58.6% | viability, T/C [10]: 55.9% | viability, T/C [11]: 43.8% | viability, T/C [12]: 17.4% | viability, T/C [13]: 66.6% | viability, T/C [14]: 65% | viability, T/C [15]: 60.5% | viability, T/C [16]: 58.9% | viability, T/C [17]: 43.3% | viability, T/C [18]: 20.8% | viability, T/C [19]: 66.7% | viability, T/C [20]: 63.5% | viability, T/C [21]: 66.5% | viability, T/C [22]: 57.7% | viability, T/C [23]: 53.2% | viability, T/C [24]: 25.4% | viability, T/C [25]: 62.1% | viability, T/C [26]: 63% | viability, T/C [27]: 66.5% | viability, T/C [28]: 60.7% | viability, T/C [29]: 53.1% | viability, T/C [30]: 28.2% | viability, T/C [31]: 61.8% | viability, T/C [32]: 64.2% | viability, T/C [33]: 61.7% | viability, T/C [34]: 58.7% | viability, T/C [35]: 50.4% | viability, T/C [36]: 25.3%

CC1COCCN1c1cc(C2(O)CC3CCC(C2)O3)c2cnn(-c3ccn[nH]3)c2n1 (stereo unspecified) + Cc1cnc(CNC(=O)c2c(=O)c3ccc(N4CCCN(C)CC4)nc3n3c2sc2ccccc23)cn1
IC50 (second compound 0.0316 µM): < 31.6 nM | IC50 (second compound 0.1 µM): < 31.6 nM | IC50 (second compound 0.316 µM): < 31.6 nM | IC50 (second compound 1 µM): < 31.6 nM | IC50 (second compound 3.16 µM): < 31.6 nM | IC50 (second compound 10 µM): < 31.6 nM | viability, T/C [1]: 33.7% | viability, T/C [2]: 16.5% | viability, T/C [3]: 9.78% | viability, T/C [4]: 5.45% | viability, T/C [5]: 4.11% | viability, T/C [6]: 2.67% | viability, T/C [7]: 33.8% | viability, T/C [8]: 17.1% | viability, T/C [9]: 9.54% | viability, T/C [10]: 5.51% | viability, T/C [11]: 4.25% | viability, T/C [12]: 3.04% | viability, T/C [13]: 34.8% | viability, T/C [14]: 21.1% | viability, T/C [15]: 10.6% | viability, T/C [16]: 5.81% | viability, T/C [17]: 4.2% | viability, T/C [18]: 3.15% | viability, T/C [19]: 35.5% | viability, T/C [20]: 22.2% | viability, T/C [21]: 13.5% | viability, T/C [22]: 6.47% | viability, T/C [23]: 4.91% | viability, T/C [24]: 2.51% | viability, T/C [25]: 44.8% | viability, T/C [26]: 27.9% | viability, T/C [27]: 16.4% | viability, T/C [28]: 6.87% | viability, T/C [29]: 4.24% | viability, T/C [30]: 0.23% | viability, T/C [31]: 43.3% | viability, T/C [32]: 31.1% | viability, T/C [33]: 15.4% | viability, T/C [34]: 7.69% | viability, T/C [35]: 3.95% | viability, T/C [36]: 0.2%
